Here are results for eleven molecules from patent US10000471B2, “Pyrazole P38 map kinase inhibitors” (Respivert Limited, priority 2010, dated 2018).

Data set [1] addresses T1, p38 MAPKα isoform (MAPK14) (Homo sapiens, UniProt Q16539).
T1 construct: purchased Invitrogen
Briefly: Enzyme inhibition assay (FRET, Z-LYTE), p38 MAPKα via MAPKAP-K2 activation. The format is biochemical. Particulars: read-out: Enzyme Inhibition IC50 p38α. The procedure, abridged:
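Recombinant p38 MAPKα was preincubated with compound for 2 h at RT. Its activity was measured indirectly through activation/phosphorylation of downstream MAPKAP-K2, with a Z-LYTE FRET peptide read-out (coumarin/fluorescein ratio) after a 1 h development step. IC50 came from concentration-response curves of percent inhibition versus an uninhibited control.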

The next data set concerns the target T2, p38 MAPKγ (MAPK12) (Homo sapiens, UniProt P53778).
T2 construct: purchased Invitrogen
T2 sequence (P53778 1-367): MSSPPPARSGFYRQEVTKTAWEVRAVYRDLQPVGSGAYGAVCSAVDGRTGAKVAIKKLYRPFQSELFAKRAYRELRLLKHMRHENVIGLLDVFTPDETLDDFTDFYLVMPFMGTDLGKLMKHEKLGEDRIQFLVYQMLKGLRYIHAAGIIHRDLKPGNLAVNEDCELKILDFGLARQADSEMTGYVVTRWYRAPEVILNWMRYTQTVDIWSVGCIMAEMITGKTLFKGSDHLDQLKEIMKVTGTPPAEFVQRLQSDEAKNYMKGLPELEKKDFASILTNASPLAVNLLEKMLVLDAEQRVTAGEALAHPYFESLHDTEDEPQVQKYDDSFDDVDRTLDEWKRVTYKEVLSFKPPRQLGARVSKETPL
Briefly: Enzyme inhibition assay (FRET, Z-LYTE), p38 MAPKγ. The format is biochemical. To be noted: read-out: Enzyme Inhibition IC50 p38γ. The procedure, abridged: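 Recombinant phosphorylated p38 MAPKγ preincubated 2 h at RT with compound in HEPES buffer, then 2 μM FRET peptide and 100 μM ATP added for 1 h; protease development 1 h. Coumarin/fluorescein emission ratio gave phosphorylation; IC50 from concentration-response versus uninhibited control.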

The test system of data set [2] is TNFα release in THP-1 cells. Briefly: LPS-induced TNFα release in THP-1 cells. Type of data set: cell-based, human. To be noted: Homo sapiens. The procedure, abridged: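 Human monocytic THP-1 cells stimulated with 3 μg/mL E. coli LPS for 4 hr; supernatant TNFα measured by sandwich ELISA. Inhibition at each concentration versus vehicle control, IC50 from concentration-response curve.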

Data set [3] relates to TNFα release in d-U937 cells. Briefly: LPS-induced TNFα release in d-U937 cells. Type of data set: cell-based, human. Particulars: Homo sapiens, dU937, relative to 10 μg/mL BIRB796, read-out: LPS/TNFα REC50 d-U937. The procedure, abridged:
(§1)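 PMA-differentiated (100 ng/ml, 48–72 hr) U937 macrophage-type cells pre-incubated 2 hr with compound, then stimulated 4 hr with 0.1 μg/mL E. coli O111:B4 LPS; supernatant TNFα and IL-8 measured by sandwich ELISA. TNFα inhibition expressed relative to 10 μg/mL BIRB796, giving REC50; IL-8 inhibition versus vehicle, giving IC50.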

Data set [4] deals with IL-8 release in d-U937 cells. In words: LPS-induced IL-8 release in d-U937 cells. The format is cell-based, human. To be noted: Homo sapiens, dU937. Summed up:
as §1

Data set [5] relates to ICAM-1 induction in BEAS2B cells. In words: Poly I:C-induced ICAM-1 induction in BEAS2B cells. The format is cell-based, human. To be noted: Homo sapiens, BEAS-2B, read-out: PolyIC/ICAM1 IC50 BEAS2B. Summed up:
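Human bronchial epithelial BEAS2B cells were pre-incubated with compound for 2 hr, then transfected with 1 μg/mL poly I:C. After 18 hr, surface ICAM-1 was measured by cell-based ELISA (OD450-655) and normalized to crystal violet cell counts (OD595). IC50 came from inhibition versus vehicle across the concentration-response curve.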

For data set [6], the system named is Differentiated U937 cells. Briefly: Cell viability MTT assay. The format is cell-based, human. Particulars: negative = apparent increase in viability; for MTT Assay (Viability) 4 h d-U937, percentage loss of cell viability: 4 hr in 5% FCS; for MTT Assay (Viability) 24 h d-U937, percentage loss of cell viability: 24 h in 10% FCS. Summed up: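 Differentiated U937 cells pre-incubated with compound either 4 hr in 5% FCS or 24 h in 10% FCS, then 1 hr MTT. Formazan dissolved in DMSO, absorbance at 550 nm. Percentage viability loss relative to 0.5% DMSO vehicle; apparent increases appear as negative percentages.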
For orientation: Tetrazolium assays rely on reduction of a dye to a coloured formazan, in cell work by metabolically active cells.

T1 sequence (Q16539 whole entry, canonical isoform): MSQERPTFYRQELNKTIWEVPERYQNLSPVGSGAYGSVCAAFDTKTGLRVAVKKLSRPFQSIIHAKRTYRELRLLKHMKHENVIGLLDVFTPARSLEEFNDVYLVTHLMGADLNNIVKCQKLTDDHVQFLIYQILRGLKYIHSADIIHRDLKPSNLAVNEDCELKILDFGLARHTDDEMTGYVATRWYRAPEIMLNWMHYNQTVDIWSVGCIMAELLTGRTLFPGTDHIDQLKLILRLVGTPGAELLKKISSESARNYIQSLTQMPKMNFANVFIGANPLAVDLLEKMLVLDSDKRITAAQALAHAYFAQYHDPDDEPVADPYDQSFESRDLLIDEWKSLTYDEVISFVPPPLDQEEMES

Take `COCC(=O)Nc1cc(CSc2ccc(NC(=O)Nc3cc(C(C)(C)C)nn3-c3ccc(OC)cc3)c(Cl)c2Cl)ccn1` [Example 26, N-(4-((4-(3-(3-tert-Butyl-1-(4-methoxyphenyl)-1H-pyrazol-5-yl)ureido)-2,3-dichlorophenylthio)methyl)pyridin-2-yl)-2-methoxyacetamide]: the IC50 in data set [1] was 29 nM; on p38 MAPKγ (MAPK12), 2860 nM; in data set [2] it was 97.2 nM; in data set [4], 266 nM; in data set [5], over 156 nM. Further, in data set [3], the EC50 came to 171 nM. Besides, in data set [6], the “MTT Assay (Viability) 4 h d-U937, percentage loss of cell viability” value is 10.5%. Further, the “MTT Assay (Viability) 24 h d-U937, percentage loss of cell viability” value in data set [6] is −4.3%.
For the molecule `COCC(=O)Nc1cc(Oc2ccc(NC(=O)Nc3cc(C(C)(C)C)nn3-c3ccc(C)cc3)c(Cl)c2)ccn1` [Example 27, N-(4-(4-(3-(3-tert-butyl-1-p-tolyl-1H-pyrazol-5-yl)ureido)-3-chlorophenoxy)pyridin-2-yl)-2-methoxyacetamide], the IC50 in data set [1] came to 18.8 nM; on p38 MAPKγ (MAPK12), 111 nM; in data set [2], 0.6 nM; in data set [4], 3.3 nM; in data set [5] it was 6.3 nM. In addition, the EC50 in data set [3] worked out at 0.5 nM. Further, the “MTT Assay (Viability) 4 h d-U937, percentage loss of cell viability” value in data set [6] was 7.2%. Besides, in data set [6], the “MTT Assay (Viability) 24 h d-U937, percentage loss of cell viability” value was 54.9%.
As for `COCC(=O)Nc1cc(Oc2ccc(NC(=O)Nc3cc(C(C)(C)C)nn3-c3ccc(C)cc3)cc2C#N)ccn1` [Example 28, N-(4-(4-(3-(3-tert-butyl-1-p-tolyl-1H-pyrazol-5-yl)ureido)-2-cyanophenoxy)pyridin-2-yl)-2-methoxyacetamide], the IC50 in data set [1] worked out at 48.3 nM; on p38 MAPKγ (MAPK12), 30.1 nM; in data set [2] it was 3.2 nM; in data set [4] it was 7 nM; in data set [5], 11.6 nM. Moreover, the EC50 in data set [3] was 2.7 nM. Further, the “MTT Assay (Viability) 4 h d-U937, percentage loss of cell viability” value in data set [6] is given as −3.8%. In data set [6], the “MTT Assay (Viability) 24 h d-U937, percentage loss of cell viability” value is 71.0%.
On to `COCC(=O)Nc1cc(Oc2ccc(NC(=O)Nc3cc(C(C)(C)C)nn3-c3ccc(C)cc3)cc2Cl)ccn1` [Example 29, N-(4-(4-(3-(3-tert-butyl-1-p-tolyl-1H-pyrazol-5-yl)ureido)-2-chlorophenoxy)pyridin-2-yl)-2-methoxyacetamide], for which the IC50 in data set [1] was determined as 46.1 nM; on p38 MAPKγ (MAPK12), 46.1 nM; in data set [2] it was 2.2 nM; in data set [4], 17.9 nM; in data set [5] it was 77 nM. The EC50 in data set [3] is 0.8 nM. The “MTT Assay (Viability) 4 h d-U937, percentage loss of cell viability” value in data set [6] is −0.7%. Moreover, the “MTT Assay (Viability) 24 h d-U937, percentage loss of cell viability” value in data set [6] is on record as 30.8%.
As to `COCC(=O)Nc1cc(Oc2ccc(NC(=O)Nc3cc(C(C)(C)C)nn3-c3ccc(C)cc3)cc2C(F)(F)F)ccn1` [Example 30, N-(4-(4-(3-(3-tert-butyl-1-p-tolyl-1H-pyrazol-5-yl)ureido)-2-trifluoromethylphenoxy)pyridin-2-yl)-2-methoxyacetamide], the IC50 stood at 164 nM in data set [1]; 152 nM on p38 MAPKγ (MAPK12); 1.3 nM in data set [2]; 6.5 nM in data set [4]; 6.9 nM in data set [5]. Moreover, in data set [3], the EC50 came out at 2.5 nM. For the same molecule, in data set [6], the “MTT Assay (Viability) 4 h d-U937, percentage loss of cell viability” value came to 3.3%. For the same molecule, the “MTT Assay (Viability) 24 h d-U937, percentage loss of cell viability” value in data set [6] is on record as 61.6%.
Turning to `COCC(=O)Nc1cc(Oc2ccc(NC(=O)Nc3cc(C(C)(C)C)nn3-c3ccc(C)cc3)cc2S(C)(=O)=O)ccn1` [Example 31, N-(4-(4-(3-(3-tert-butyl-1-p-tolyl-1H-pyrazol-5-yl)ureido)-2-methylsulfonylphenoxy)pyridin-2-yl)-2-methoxyacetamide], the IC50 was 154 nM in data set [1]; 290 nM on p38 MAPKγ (MAPK12); 143 nM in data set [2]; 264 nM in data set [4]; 108 nM in data set [5]. Moreover, in data set [3], the EC50 turned out to be 176 nM. In addition, the “MTT Assay (Viability) 4 h d-U937, percentage loss of cell viability” value in data set [6] is given as 1.1%. In data set [6], the “MTT Assay (Viability) 24 h d-U937, percentage loss of cell viability” value stood at 49.3%.
Regarding `COCC(=O)Nc1cc(Oc2ccc(NC(=O)Nc3cc(C(C)(C)C)nn3-c3ccc(C)cc3)c(Br)c2)ccn1` [Example 32, N-(4-(3-bromo-4-(3-(3-tert-butyl-1-p-tolyl-1H-pyrazol-5-yl)ureido)phenoxy)pyridin-2-yl)-2-methoxyacetamide], the IC50 was determined as 42.9 nM in data set [1]; 148 nM at p38 MAPKγ (MAPK12); 1.3 nM in data set [2]; 29.1 nM in data set [4]; 6.5 nM in data set [5]. The EC50 in data set [3] is 0.6 nM. Also, in data set [6], the “MTT Assay (Viability) 4 h d-U937, percentage loss of cell viability” value stood at 17.2%. Also, the “MTT Assay (Viability) 24 h d-U937, percentage loss of cell viability” value in data set [6] came to 65.3%.
On to `COCC(=O)Nc1cc(Oc2ccc(NC(=O)Nc3cc(C(C)(C)C)nn3-c3ccc(C)cc3)cc2Br)ccn1` [Example 33, N-(4-(2-bromo-4-(3-(3-tert-butyl-1-p-tolyl-1H-pyrazol-5-yl)ureido)phenoxy)pyridin-2-yl)-2-methoxyacetamide], for which the IC50 was 25.3 nM in data set [1]; 59.7 nM at p38 MAPKγ (MAPK12); 1.5 nM in data set [2]; 4.8 nM in data set [4]; 3 nM in data set [5]. Besides, the EC50 in data set [3] stood at 6.4 nM. Besides, the “MTT Assay (Viability) 4 h d-U937, percentage loss of cell viability” value in data set [6] is reported as −12.6%. Besides, the “MTT Assay (Viability) 24 h d-U937, percentage loss of cell viability” value in data set [6] was found to be 68.9%.
On to `COCC(=O)Nc1cc(Oc2ccc(NC(=O)Nc3cc(C(C)(C)C)nn3-c3ccc(C)cc3)c(F)c2F)ccn1` [Example 34, N-(4-(4-(3-(3-tert-butyl-1-p-tolyl-1H-pyrazol-5-yl)ureido)-2,3-difluorophenoxy)pyridin-2-yl)-2-methoxyacetamide], for which the IC50 in data set [1] worked out at 134 nM; at p38 MAPKγ (MAPK12) it was 24 nM; in data set [2] it was 0.4 nM; in data set [4] it was 2.2 nM; in data set [5], 2.5 nM. Also, the EC50 in data set [3] amounted to 0.3 nM. For the same molecule, the “MTT Assay (Viability) 4 h d-U937, percentage loss of cell viability” value in data set [6] amounted to 2.4%. Further, in data set [6], the “MTT Assay (Viability) 24 h d-U937, percentage loss of cell viability” value is reported as 82.1%.
As to `COCC(=O)Nc1cc(Oc2ccc(NC(=O)Nc3cc(C(C)(C)C)nn3-c3ccc(C)cc3)c(Cl)c2F)ccn1` [Example 35, N-(4-(4-(3-(3-tert-butyl-1-p-tolyl-1H-pyrazol-5-yl)ureido)-3-chloro-2-fluorophenoxy)pyridin-2-yl)-2-methoxyacetamide], the IC50 was found to be 24.7 nM in data set [1]; 134 nM at p38 MAPKγ (MAPK12); 0.6 nM in data set [2]; 2.8 nM in data set [4]; 1.5 nM in data set [5]. In data set [3], the EC50 was found to be 0.5 nM. Also, the “MTT Assay (Viability) 4 h d-U937, percentage loss of cell viability” value in data set [6] is recorded as −0.2%. The “MTT Assay (Viability) 24 h d-U937, percentage loss of cell viability” value in data set [6] is reported as 73.1%.
For `COCC(=O)Nc1cc(Oc2ccc(NC(=O)Nc3cc(C(C)(C)C)nn3-c3ccc(C)cc3)c(Cl)c2Cl)ccn1` [Example 36, N-(4-(4-(3-(3-tert-butyl-1-p-tolyl-1H-pyrazol-5-yl)ureido)-2,3-dichlorophenoxy)pyridin-2-yl)-2-methoxyacetamide], the IC50 worked out at 18.4 nM in data set [1]; 380 nM at p38 MAPKγ (MAPK12); 2.2 nM in data set [2]; 3.4 nM in data set [4]; 1.9 nM in data set [5]. In data set [3], the EC50 amounted to 0.7 nM. The “MTT Assay (Viability) 4 h d-U937, percentage loss of cell viability” value in data set [6] is −11.2%. The “MTT Assay (Viability) 24 h d-U937, percentage loss of cell viability” value in data set [6] came out at 68.8%.
